Source: US20220401481A1, “DOSING REGIMENS FOR THE MOBILIZATION OF HEMATOPOIETIC STEM AND PROGENITOR CELLS” (Magenta Therapeutics, Inc., priority 2019, published 2022)
Several values for one entry are separate records, joined by “and”; a condition that tells them apart may be missing. Equal entries are not always repeated. Where two headings read alike, the source gives them in different places.

Assays:
[1] = tested on: T cells, B cells and NK cells; details: cited from earlier work
CD34+ cells [2] = details: historical plerixafor alone data, Devine et al., Blood 2008 (n=25); cited from earlier work
CD34+ cells [3] = assay: Phase 1 clinical trial: mobilization of CD34+ cells into peripheral blood (multicolor flow cytometry); details: for % ≥40/μL: plerixafor
CD34+CD90+CD45RA− cells = assay: Phase 1 clinical trial: mobilization of CD34+CD90+CD45RA− cells into peripheral blood (flow cytometry); details: plerixafor alone
[4] = G-CSF; Pulsiper et al. (2009) Blood; cited from earlier work
[5] = tested on: neutrophil activation markers (L-selectin, CD11b, CD18, CD66); details: 5 days of G-CSF treatment, reported by Falanga et al., Blood 1999; cited from earlier work
[6] = Chen et al., 2019, plerixafor N = 50+, median yield of 2 LP
[7] = Devine et al, 2008, median yield of 1 LP, plerixafor N = 24, G-CSF N = 8
[8] = Part C, first day, combination (0.03 or […]) 8 patients, plerixafor alone
[9] = Part C, placebo + plerixafor on Day 2 (n=2)
[10] = 78 healthy donors mobilized with G-CSF (Chaidos et al, Blood. 2012)
[11] = Chen et al., 2019, G-CSF N = 112+, 1 LP

Molecule: c1cc(CN2CCCNCCNCCCNCC2)ccc1CN1CCCNCCNCCCNCC1 [Plerixafor, 1,1′-[1,4-phenylenebis(methylene)]-bis-1,4,8,11-tetra-azacyclotetradecane]
- CD3+ in graft, Median (range) [1, 6]: 6.0 (2.7-13.0) ×10^8/kg
- CD4+ in graft, Median (range) [1, 6]: 3.6 (2.0-9.4) ×10^8/kg
- CD8+ in graft, Median (range) [1, 6]: 2.2 (0.5-5.0) ×10^8/kg
- CD19+ in graft, Median (range) [1, 6]: 1.5 (0.2-7.4) ×10^8/kg
- CD34+ in graft, Median (range) [1, 6]: 4.7 (0.9-9.6) ×10^6/kg
- CD56+ in graft, Median (range) [1, 6]: 0.4 (0.0-1.1) ×10^8/kg
- CD3+ in graft, Median (range) [1, 7]: 4.6 (1.5-7.8) ×10^8/kg
- CD4+ in graft, Median (range) [1, 7]: 3.2 (1-5.7) ×10^8/kg
- CD8+ in graft, Median (range) [1, 7]: 1.3 (0.4-3.4) ×10^8/kg
- CD34+ in graft, Median (range) [1, 7]: 2.9 (1.2-6.3) ×10^6/kg
- CD56+ in graft, Median (range) [1, 7]: 0.3 (0.1-1.0) ×10^8/kg
- CD19+ in graft, Median (range) ([1]; Devine et al, 2008, median yield of 1 LP, plerixafor N = 24): 1.0 (0.2-2.4) ×10^8/kg
- Patients with peak CD34+ ≥20 cells/μL (CD34+ cells [2]): 28%
- Patients with peak CD34+ ≥40 cells/μL (CD34+ cells [2]): 4%
- CD34+ AUC2-8h Median (range) (CD34+ cells [3]; 2-8 hours post plerixafor dose, plerixafor alone): 102 (61-341)
- % ≥40/μL (CD34+ cells [3]; Part B): 21% (3/16)
- Peak CD34+ (#/μL) Median (range) (CD34+ cells [3]; Part B, plerixafor (placebo + plerixafor) on Day 1): 26 (13-78) #/μL
- Number of patients with peak CD34+ count of at least 20 cells per microliter (CD34+ cells [3]; [8]): none
- Number of patients with peak CD34+ count of at least 40 cells per microliter (CD34+ cells [3]; [8]): none
- Peak CD34+ (#/μL) Median (range) (CD34+ cells [3]; [9]): 17 (12-22) #/μL
- Percent ≥20/μL (CD34+ cells [3]; [9]): 50 (1/2) %
- Peak CD34+ (#/μL) Median (range) (CD34+ cells [3]; Part C, plerixafor (placebo + plerixafor) on Day 1 (n=2)): 18 (16-20) #/μL
- % ≥40/μL (CD34+ cells [3]; Part C, first day (n=2)): 0% (0/2)
- % ≥40/μL (CD34+ cells [3]; Pooled B + C): 14% (2/14)
- Peak CD34+ (#/μL) Median (range) (CD34+ cells [3]; Pooled B + C, plerixafor (placebo + plerixafor) on Day 1): 20 (13-78) #/μL and 23 (13-78) #/μL
- Peak CD34+/μL (FC vs. baseline) Median (range) (CD34+ cells [3]; plerixafor alone): 15 (8-62) fold
- Tmax of peak CD34+ level Median (range) (CD34+ cells [3]; plerixafor alone): 8 (3-12) h
- Patients with peak CD34+ ≥20 cells/μL (CD34+ cells [3]; plerixafor alone (n=14)): 50%
- Patients with peak CD34+ ≥40 cells/μL (CD34+ cells [3]; plerixafor alone (n=14)): 14%
- CD34+CD90+CD45RA− cells, median peak (CD34+CD90+CD45RA− cells): 8 cells/μL

B1: G-CSF: Filgrastim (G-CSF), most common clinical hematopoietic stem cell mobilization protocol, five days (protein, UniProt P09919 31-207, looked up)
Granulocyte …: TPLGPASSLPQSFLLKCLEQVRKIQGDGAALQEKLVSECATYKLCHPEELVLLGHSLGIPWAPLSSCPSQALQLAGCLSQLHSGLFLYQGLLQALEGISPELGPTLDTLQLDVADFATTIWQQMEELGMAPALQPTQGAMPAFASAFQRRAGGVLVASHLQSFLEVSYRVLRHLAQP
modifications: filgrastim
- Tolerability [4]: Majority with bone pain,
- Fold increase in neutrophil activation markers [5]: ~2.7 fold
- TNC/kg donor weight, Median (range) ([1]; 40 healthy donors mobilized with G-CSF (Singhal et al, BMT. 2000)): 7.2 (3.2-14.0) ×10^8 cells
- Frequency of CD3+ T cells in graft, Median (range) [1, 10]: 45.3 (21.8-75.4) % of CD45+
- Frequency of CD4+ T cells in graft, Median (range) [1, 10]: 29.8 (12.6-56.5) % of CD45+
- Frequency of CD8+ T cells in graft, Median (range) [1, 10]: 11.8 (4.1-29.2) % of CD45+
- Frequency of CD19+ B cells in graft, Median (range) [1, 10]: 10.5 (0.9-34.8) % of CD45+
- Frequency of CD56+ NK cells in graft, Median (range) [1, 10]: 3.2 (0.5-18.4) % of CD45+
- Frequency of Tregs in graft, Median (range) [1, 10]: 3.5 (0.9-8.2) % of CD4+ T cells
- Frequency of iNKT cells in graft, Median (range) [1, 10]: 0.04 (0.00-1.07) % of CD3+
- CD3+ in graft, Median [1, 11]: 2.5e+08 kg⁻¹
- CD4+ in graft, Median [1, 11]: 1.5e+08 kg⁻¹
- CD8+ in graft, Median [1, 11]: 7e+07 kg⁻¹
- CD19+ in graft, Median [1, 11]: 5e+07 kg⁻¹
- CD34+ in graft, Median [1, 11]: 4.2e+06 kg⁻¹
- CD56+ in graft, Median [1, 11]: 1e+07 kg⁻¹
- CD3+ in graft, Median (range) [1, 7]: 1.3 (1.2-6.8) ×10^8/kg
- CD4+ in graft, Median (range) [1, 7]: 1.1 (0.7-3.2) ×10^8/kg
- CD8+ in graft, Median (range) [1, 7]: 0.4 (0.3-3.4) ×10^8/kg
- CD34+ in graft, Median (range) [1, 7]: 4.2 (2.5-18.7) ×10^6/kg
- CD56+ in graft, Median (range) [1, 7]: 0.2 (0.1-0.5) ×10^8/kg
